We go through eleven molecules from patent publication US20130252930A1 (BIOMARIN PHARMACEUTICAL INC., priority 2010, published 2013).

Like-named read-outs stand apart in the source and are kept apart here.

Data set [1] has as its system rat Cyp11B enzyme (rat adrenal mitochondria). Put plainly: CYP11B enzymatic assay (% inhibition at 100 nM) (Biological Example 9). It is filed as biochemical. The settings on record: compound at 100 nM. Here is the method: Adrenals excised from Sprague Dawley rats were homogenized, and mitochondria fraction were prepared by a series of centrifugation as described in Shuji Ohno, et al. J. of Steroid Biochemistry & Molecular Biology 2002, 80, 355-363. Prepared mitochondria protein was washed and resuspended in Buffer B (0.21 M mannitol, 70 mM sucrose, 5 mM MgCl2, 0.5 mM CaCl2, 20 mM Tris-HCl (pH 7.4) and 1 mM DTT, […]). The protein concentration was determined by BCA assay and stored as 10 μL aliquots at −80° C.
The rat Cyp11B enzyme assay was performed in 96-well plates. Typical assays were carried out in total 50 μL volume that included test compounds at 100 nM concentration, 1× Buffer B, 0.5 mM NADPH, 0.1 μM 11-deoxycortisol, and 2 μL of prepared rat adrenal mitochondria (added last). Reaction without test compound served as positive control and reaction without NADPH served as negative control. Reactions were allowed to incubate at 37° C. for 60 min with gentle shaking. The reaction was stopped by directly applying the enzymatic reaction mixture (1:5 diluted in ELISA assay buffer) to ELISA plate for evaluation of cortisol concentration according to manufacturer's protocol (Assay Design).
The mean absorbance value for each sample was used to determine the corresponding concentration from the standard curve. Amount of cortisol in the negative control (reaction that dis not include NADPH) was subtracted from total cortisol. Percent inhibition (inhibition %) of the compound was calculated using normalized cortisol concentration based on following formula: 100−([Cortisol] of compound/[Cortisol] of positive control *100).

For data set [2], the target named is T1, CYP17 (human testicular microsome) (Homo sapiens, UniProt P05093).
T1 construct: using microsomal fraction from human testis (Celsis Cat #S00110) as the enzyme source; tissue Celsis S00110; host or cells: human testis microsomal fraction
T1 sequence (P05093 1-508): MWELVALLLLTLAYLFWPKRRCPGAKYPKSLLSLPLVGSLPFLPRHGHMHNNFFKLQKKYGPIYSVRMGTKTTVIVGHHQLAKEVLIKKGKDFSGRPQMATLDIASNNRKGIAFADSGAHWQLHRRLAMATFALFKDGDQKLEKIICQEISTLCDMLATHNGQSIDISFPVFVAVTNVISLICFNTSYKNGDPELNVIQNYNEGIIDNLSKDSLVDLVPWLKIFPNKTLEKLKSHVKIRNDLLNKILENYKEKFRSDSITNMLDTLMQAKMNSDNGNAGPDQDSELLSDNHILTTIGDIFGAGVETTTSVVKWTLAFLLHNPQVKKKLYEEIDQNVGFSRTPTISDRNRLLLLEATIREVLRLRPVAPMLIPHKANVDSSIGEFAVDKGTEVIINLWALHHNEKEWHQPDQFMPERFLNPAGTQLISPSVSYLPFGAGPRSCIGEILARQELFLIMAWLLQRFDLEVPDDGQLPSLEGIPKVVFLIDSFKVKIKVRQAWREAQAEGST
Put plainly: CYP17 enzymatic assay (% inhibition at 1 nM) (Biological Example 12). The format is biochemical.

Data set [3] addresses T1, CYP17 (human testicular microsome). As to the kind of experiment: CYP17 enzymatic assay (IC50) (Biological Example 4). The format is biochemical. The settings on record: human testicular microsome, read-out: Biological Example No. 4: CYP17 enzymatic assay IC50.
In data set [4] the target is T2, CYP17 (H295R cells) (Homo sapiens, UniProt P05093).
T2 construct: endogenous in cells; host or cells: H295R cells
T2 sequence (P05093 1-508): T1 sequence (P05093 1-508)
Put plainly: CYP17 cellular assay (IC50), testosterone in H295R cells (Biological Example 7). The format is cell-based. Conditions: H295R cells, read-out: Biological Example No. 7: CYP17 cellular assay IC50. In a few lines: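 Testosterone in the medium was quantified by ELISA after 24 h at 37 °C with test compound (final 100, 10, 1, 0.1 nM; serum-free DMEM/F-12, ITS+, 0.1% methanol). The H295R cells had been seeded and grown 24 h beforehand; vehicle wells served as control.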

The target of data set [5] is T3, Cyp21 enzyme (Human HEK 293-Cyp21 stable transfected cells) (Homo sapiens, UniProt P08686).
T3 construct: expressed in transfected cells
T3 sequence (P08686 1-495): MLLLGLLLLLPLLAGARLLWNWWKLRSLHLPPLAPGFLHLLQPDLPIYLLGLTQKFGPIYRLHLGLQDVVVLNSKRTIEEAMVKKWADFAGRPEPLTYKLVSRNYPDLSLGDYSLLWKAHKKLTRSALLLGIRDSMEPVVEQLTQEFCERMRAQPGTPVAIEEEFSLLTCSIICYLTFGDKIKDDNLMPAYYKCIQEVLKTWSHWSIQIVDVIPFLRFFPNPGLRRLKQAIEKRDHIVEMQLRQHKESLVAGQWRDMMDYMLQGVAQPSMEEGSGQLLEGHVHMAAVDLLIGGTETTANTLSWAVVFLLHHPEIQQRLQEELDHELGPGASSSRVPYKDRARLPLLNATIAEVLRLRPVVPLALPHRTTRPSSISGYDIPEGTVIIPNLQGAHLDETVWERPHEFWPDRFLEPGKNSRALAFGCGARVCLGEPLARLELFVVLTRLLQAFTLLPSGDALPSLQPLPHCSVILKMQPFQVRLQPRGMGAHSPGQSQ
As to the kind of experiment: CYP21-HEK293 enzymatic assay (IC50) (Biological Example 11). It is filed as cell-based. The settings on record: HEK 293-Cyp21 cells.
Method: This assay was used to determine compound activity against Cyp21 enzyme. […] The next day, 20 μL medium was carefully removed and 10 μL of 10× pre-made compounds in DMEM+10% FBS+10% methanol was transferred to the wells to final concentrations of 1000, 100, 10, 1, or 0.1 nM. Mock treatment was 1% methanol in growth media and the cells were left at 37° C., 5% CO2 for 5 hr. After the incubation, 10 μL of substrate progesterone (Sigma) was added to the wells to make a final concentration of 10 μM. The cells were incubated the cells at 37° C. for 20 hr. At the end of incubation, 90 μL of conditioned media was removed to measure DOC level by ELISA.
The next day, the plates were washed twice with 250 μl of wash solution (0.015M PBS pH 7.4 containing 0.05% Tween 20). After being washed, the wells were blocked with 250 μL blocking buffer (3% BSA in 0.025M PBS, pH 7.4) at 37° C. for 2 h. The plates were washed again 3 times as before, and then 90 μL of sample /standards (prepared in complete growth media) was added into the appropriate wells followed by 10 μL of antibody solution (1:450 rabbit anti-DOC in 0.6% BSA/PBS). The plates were incubated at room temperature for 2 h on a shaker. The contents of the wells were removed and the plate was washed 4 times. After the final wash, 100 μL of secondary antibody (1:12000 HRP-goat-anti-rabbit IgG conjugate 0.6% BSA/PBS) was added into each well. […] The plate was washed again 4 times and 100 μL of TMB substrate solution was added to each well. The plate was incubated at room temperature for 10 min. 100 μL of stop solution was added to each well and the optical density was read at 450 nm.
The mean absorbance value for each sample was used to determine the corresponding concentration from the standard curve. Data was analyzed with “log(antagonist) vs response variable slope” under “non-linear regression analysis” using Prism5 software.

Data set [6] can be described thus: Human liver microsome stability assay (Biological Example 8b). Conditions: liver microsomes, pH 7.4. On the technique in general: Liver microsomes are a subcellular fraction often used to study metabolism.
Method: The reaction was started with addition of excess NADPH (5 mg/mL, 15 μL in 0.1 M potassium phosphate buffer, 1.0 mM EDTA, pH 7.4), the total volume is 45 μL (compound final concentration was 1 μM). […] 50 μL of the supernatant was transferred from each well into a 96-well sample plate containing 50 μL of ultra-pure water (Millipore) for LC-MS/MS analysis.
Where [7] appears, read: compound at 1 nM, read-out: CYP17 enzymatic assay % inhibition at 1 nM (Biological Example No. 12).
The mark [8] stands for this setting: compound at 1 nM, read-out: Biological Example No. 12: CYP17 enzymatic assay % inhibition at 1 nM.

Turning to `CN1C(=O)C[C@@]2(C)C1=CCC1C2CC[C@]2(C)C(n3ccnc3)=CCC12` (stereo partly drawn) [Compound 186, (3aR,5aS)-6-(1H-imidazol-1-yl)-1,3a,5a-trimethyl-3,3a,3b,4,5,5a,8,8a,8b,9-decahydroindeno[5,4-e]indol-2(1H)-one], the “CYP11B enzymatic assay % inhibition at 100 nM (Biological Example No. 9)” value in data set [1] is “U (U means the compound had a percent inhibition of greater than or equal to 32%)”. Besides, in data set [2] (setting [7]), the inhibition (as a rule, how much of the control response was suppressed) at 0.001 µM is 10 to 50%.

`Cc1cncc(C2=CCC3C4CC=C5N(C)C(=O)C[C@]5(C)C4CC[C@]23C)c1` (stereo partly drawn) [Compound 188, (3aR,5aS)-1,3a,5a-trimethyl-6-(5-methylpyridin-3-yl)-3,3a,3b,4,5,5a,8,8a,8b,9-decahydroindeno[5,4-e]indol-2(1H)-one]: the “CYP11B enzymatic assay % inhibition at 100 nM (Biological Example No. 9)” value in data set [1] is on record as “T (T means the compound had a percent inhibition of less than 32% when tested at 100 nM)”. In data set [2] (setting [7]), the inhibition at 0.001 µM is 10 to 50%.

As for `CCOc1cncc(C2=CCC3C4CC=C5N(C)C(=O)C[C@]5(C)C4CC[C@]23C)c1` (stereo partly drawn) [Compound 189, (3aR,5aS)-6-(5-ethoxypyridin-3-yl)-1,3a,5a-trimethyl-3,3a,3b,4,5,5a,8,8a,8b,9-decahydroindeno[5,4-e]indol-2(1H)-one], the “CYP11B enzymatic assay % inhibition at 100 nM (Biological Example No. 9)” value in data set [1] is “U (U means the compound had a percent inhibition of greater than or equal to 32%)”. The inhibition at 0.001 µM in data set [2] (setting [7]) lay within 10 to 50%.

As for `C[C@]12CCNC(=O)C=C1C1CC1[C@@H]1[C@@H]2CC[C@]2(C)C(c3cncc(F)c3)=CC[C@@H]12` (stereo partly drawn) [Compound 388, (5aR,7aS)-8-(5-fluoropyridin-3-yl)-5a,7a-dimethyl-3,4,5,5a,5b,6,7,7a,10,10a,10b,10c,11,11a-tetradecahydro-2H-cyclopenta[5,6]cyclopropa[3,4]naphtho[1,2-d]azepin-2-one], the IC50 (in general, the point on the concentration scale where inhibition reaches its midpoint) in data set [3] was less than 0.011 µM; in data set [4] (testosterone), less than 0.015 µM; in data set [5] (read-out: Biological Example No. 11: CYP21-HEK293 enzymatic assay IC50), more than 1 µM. Moreover, the inhibition at 0.001 µM in data set [2] (setting [8]) was more than 50%. In data set [6], the half-life (as a rule, the time needed for the level to fall by half in the phase considered) at 1 μM lay within 1 to 50 min.

`C[C@]12CC[C@H](O)CC1=CC[C@@H]1[C@@H]2CC[C@]2(C)C(n3cncc3C#N)=CC[C@@H]12` [Compound 426, 1-((3S,10R,13S)-3-hydroxy-10,13-dimethyl-2,3,4,7,8,9,10,11,12,13,14,15-dodecahydro-1H-cyclopenta[a]phenanthren-17-yl)-1H-imidazole-5-carbonitrile]: the “Biological Example No. 9: CYP11B enzymatic assay % inhibition at 100 nM” value in data set [1] is “U (U means the compound had a percent inhibition of greater than or equal to 32%)”. Moreover, the inhibition at 0.001 µM in data set [2] (setting [8]) was 10 to 50%.

Consider `CN1C(=O)CC[C@@]2(C)C1=CCC1C2CC[C@]2(C)C(c3cncc(F)c3)=CCC12` (stereo partly drawn) [Compound 428, (4aR,6aS)-7-(5-fluoropyridin-3-yl)-1,4a,6a-trimethyl-4,4a,4b,5,6,6a,9,9a,9b,10-decahydro-1H-indeno[5,4-f]quinolin-2(3H)-one], for which the “Biological Example No. 9: CYP11B enzymatic assay % inhibition at 100 nM” value in data set [1] is “U (U means the compound had a percent inhibition of greater than or equal to 32%)”. For the same molecule, in data set [2] (setting [8]), the inhibition at 0.001 µM fell in the range of 10 to 50%.

Regarding `CN1C(=O)CC[C@@]2(C)C1=CC[C@@H]1[C@@H]2CC[C@]2(C)C(n3cncc3C#N)=CC[C@@H]12` [Compound 433, 1-((4aR,6aS)-1,4a,6a-trimethyl-2-oxo-2,3,4,4a,4b,5,6,6a,9,9a,9b,10-dodecahydro-1H-indeno[5,4-f]quinolin-7-yl)-1H-imidazole-5-carbonitrile], in data set [1], the “Biological Example No. 9: CYP11B enzymatic assay % inhibition at 100 nM” value is recorded as “T (T means the compound had a percent inhibition of less than 32% when tested at 100 nM)”. Also, in data set [2] (setting [8]), the inhibition at 0.001 µM is less than 10%.

As for `C[C@]12CCCN(S(C)(=O)=O)CC1CC[C@@H]1[C@@H]2CC[C@]2(C)C(n3ccnc3)=CC[C@@H]12` (stereo partly drawn) [Compound 437, (5aR,7aS)-8-(1H-imidazol-1-yl)-5a,7a-dimethyl-2-(methylsulfonyl)-1,2,3,4,5,5a,5b,6,7,7a,10,10a,10b,11,12,12a-hexadecahydrocyclopenta[5,6]naphtho[2,1-c]azepine], in data set [3], the half-inhibitory concentration (IC50) is more than 0.025 µM. Also, the “Biological Example No. 9: CYP11B enzymatic assay % inhibition at 100 nM” value in data set [1] is recorded as “U (U means the compound had a percent inhibition of greater than or equal to 32%)”.

As to `CC(=O)N1CCC[C@@]2(C)[C@@H](CC[C@@H]3[C@@H]2CC[C@]2(C)C(n4ccnc4)=CC[C@@H]32)C1` [Compound 443, 1-((5aR,5bS,7aS,10aS,10bR,12aR)-8-(1H-imidazol-1-yl)-5a,7a-dimethyl-3,4,5,5a,5b,6,7,7a,10,10a,10b,11,12,12a-tetradecahydrocyclopenta[5,6]naphtho[2,1-c]azepin-2(1H)-yl)ethanone], in data set [1], the “CYP11B enzymatic assay % inhibition at 100 nM (Biological Example No. 9)” value is given as “U (U means the compound had a percent inhibition of greater than or equal to 32%)”. In addition, the inhibition at 0.001 µM in data set [2] (setting [7]) was 10 to 50%.

Turning to `COC(=O)c1cncn1C1=CCC2C3CC=C4C[C@@H](O)CC[C@]4(C)C3CC[C@]12C` (stereo partly drawn) [Compound 476, methyl 1-((3S,10R,13S)-3-hydroxy-10,13-dimethyl-2,3,4,7,8,9,10,11,12,13,14,15-dodecahydro-1H-cyclopenta[a]phenanthren-17-yl)-1H-imidazole-5-carboxylate], the “Biological Example No. 9: CYP11B enzymatic assay % inhibition at 100 nM” value in data set [1] was “na (“na” means the compound was not active under the conditions tested)”. For the same molecule, the inhibition at 0.001 µM in data set [2] (setting [8]) is 10 to 50%.

As to `C[C@]12CCC(=O)C=C1C(F)CC1C2CC[C@]2(C)C(c3cccnc3)=CCC12` (stereo partly drawn) [D, (10R,13S)-6-fluoro-10,13-dimethyl-17-(pyridin-3-yl)-6,7,8,9,10,11,12,13,14,15-decahydro-1H-cyclopenta[a]phenanthren-3(2H)-one, reference compound], the IC50 in data set [3] (DHEA by ELISA) is less than 0.011 µM; in data set [4] (testosterone by ELISA, 24 hours) it was less than 0.015 µM; in data set [5] (DOC by ELISA, read-out: Biological Example No. 11: CYP21-HEK293 IC50) it was more than 1 µM. The inhibition at 0.001 µM in data set [2] (1 nM compound, DHEA by ELISA, read-out: Biological Example No. 12: CYP17 percent inhibition at 1 nM) was more than 50%. The molecule also gave a half-life at 1 μM in data set [6] of 1 to 50 min.
